≈ marks a conversion by molar mass, not a printed value.
Assays:
E. coli K12 = format: cell-based, Escherichia coli; conditions: for MIC with 10 mU mL^−1 Elastase / MIC with 100 mU mL^−1 Elastase / MIC without Elastase: Table 2, E. coli K12, conservative MIC readouts of at least three independent biological experiments
Procedure: Determination of antibacterial activities by broth dilution assay
Bacterial suspensions at 5-6 x 10^5 CFU (1:1000 dilution of a bacterial suspension of OD600 = 1) in T-medium were incubated in volumes of 200 µl in sterile clear 96-well microtiter plates at 37 °C in a wet chamber with serial dilution of peptide-colistin constructs and controls (32 – 0.016 µM) for 18 h.
External neutrophil elastase was added at 10 mU/ml or 100 mU/ml to each well at the start of incubation, where indicated. After the incubation, the plate was placed for 5 min on a MTP shaker to generate homogenous bacterial suspensions. OD600 was then determined in a microplate reader. The wells with the lowest compound concentration without growth defined the MICs. […]
Figure S7. Heat plot of the growth of E. coli K12 and E. coli DSM 1116 in presence of 6. Rows A-D: E. coli K12; Rows E-H: E. coli DSM 1116; A + E colistin; B + F peptide-colistin construct 6; C + G peptide-colistin construct 6 + 10 mU/ml elastase; D + H bacteria without compounds. The numbers below the heatplot depict the concentration of colistin and peptides in µM. Conditions: T medium, incubation 20 h at 37 °C in wet chamber; inoculum: cultures at OD = 1.0 diluted 1:1000 (5-6 x 10^5 CFU/ml). […]
Figure S10. Heat plot of the growth of E. coli in presence of 48 and 49. Row A: E. coli K12 without added compounds; B colistin B; C peptide-colistin construct 49; D peptide-colistin construct 49 + 10 mU/ml elastase; E ElsaSub-colistin; F 48 with 10 mU elastase; G 4; H 4 with […]. The numbers depict the concentration of colistin and peptides in µM. Conditions: T medium, incubation 17.5 h at 37 °C in wet chamber; inoculum 5-6 x 10^5 CFU/ml. […]
with elastase 10 mU/ml pos-1-isomer (22) […]
with elastase 10 mU/ml pos-3-isomer (28) […]
with elastase 10 mU/ml pos-5-isomer (34) […]
with elastase 10 mU/ml pos-8-isomer (40) […]
with elastase 10 mU/ml pos-9-isomer (46)
Figure S11. Heat plot of the growth of E. coli in presence of positional isomers obtained by total chemical synthesis. Conditions: T medium, incubation for 20 h at 37 °C in wet chamber; inoculum 5-6 x 10^5 CFU/ml. Addition of neutrophil elastase at 10 and 100 mU/ml, as indicated. Concentrations of isomers stated below the heat plot in µg/ml. […]

[1] = test system: E. coli K12, A. baumannii, P. aeruginosa PA14; test: Quantification of bacterial binding of fluorescently labelled compounds; format: cell-based; conditions: 1 μM in PBS, rt, 1 h incubation, washing, 485/520 nm
Procedure: Figure 4 Staining of Gram‐negative bacteria with fluorescently labeled colistin conjugates. a) Three Gram‐negative bacteria (E. coli K12, A. baumannii, P. aeruginosa PA14) were grown in T‐medium, to an OD600 of 1.0, and the fluorescently labeled compounds were added (1 μM in PBS, rt, 1 h incubation), followed by washing steps and a quantification of fluorescence in the wells. C‐Fluo: 5(6)‐carboxyfluorescein. […] An overlay of fluorescence (485/520 nm) and phase contrast pictures is shown. […]
Cell counting: 20 µl of a cell suspension were mixed with 20 µl Cedex Tryptan Blue Solution. 10 µl of the mixture were measured automatically in a cell counter (Cedex XS Cell Analyzer, Roche) in duplicate.
Quantification of bacterial binding of fluorescently labelled compounds The bacterial strains A. baumannii, E. coli K12 and P. aeruginosa PA14 were cultivated in T-medium at 37 °C to exponential growth (OD600 = 2-3). […] Afterwards, the bacteria were washed twice with PBS, suspended at OD600 = 0.2 in PBS and fluorescence was measured at 485/520 nm with 200 µl of bacterial suspensions in black 96-well microtiter plates from above in triplicate. […]

Row | Molecule | MIC with 10 mU mL^−1 Elastase (E. coli K12) [µM] | MIC with 100 mU mL^−1 Elastase (E. coli K12) [µM] | MIC without Elastase (E. coli K12) [µM] | further results
1 | CC[C@H](NC(=O)[C@@H]1C[C@@H]2CCCC[C@@H]2N1C(=O)[C@H](CCS(C)(=O)=O)NC(=O)[C@H](Cc1ccc(C(=O)c2ccccc2)cc1)NC(=O)CCc1cn(CCCC[C@@H](NC(=O)CCNC(=O)[C@@H](CCCNC(=N)N)NC(=O)[C@@H](CCCNC(=N)N)NC(=O)[C@@H](CC(N)=O)NC(=O)[C@@H](Cc2ccc(O)cc2)NC(=O)[C@@H](CCC(N)=O)NC(=O)[C@@H](CCSC)NC(=O)[C@@H](CCCNC(=N)N)NC(=O)[C@@H](CCCNC(=N)N)NC(=O)[C@@H](CCCCN)NC(=O)[C@@H](C)NC(=O)[C@@H](CCCNC(=N)N)NC(=O)CNC(=O)[C@H](N)[C@H](C)O)C(N)=O)nn1)C(=O)NCC[C@H](NC(=O)CCCCC(C)C)C(=O)N[C@H](C(=O)N[C@@H](CCN)C(=O)N[C@H]1CCNC(=O)[C@H]([C@@H](C)O)NC(=O)[C@H](CCN)NC(=O)[C@H](CCN)NC(=O)[C@H](CC(C)C)NC(=O)[C@@H](CC(C)C)NC(=O)[C@H](CCN)NC1=O)[C@@H](C)O [Compound 22] | 0.125 | 0.063 | 4 (≈ 15.2 µg/mL) | –
2 | CC[C@H](NC(=O)[C@@H]1C[C@@H]2CCCC[C@@H]2N1C(=O)[C@H](CCS(C)(=O)=O)NC(=O)[C@H](Cc1ccc(C(=O)c2ccccc2)cc1)NC(=O)CCc1cn(CCCC[C@@H](NC(=O)CCNC(=O)[C@@H](CCCNC(=N)N)NC(=O)[C@@H](CCCNC(=N)N)NC(=O)[C@@H](CC(N)=O)NC(=O)[C@@H](Cc2ccc(O)cc2)NC(=O)[C@@H](CCC(N)=O)NC(=O)[C@@H](CCSC)NC(=O)[C@@H](CCCNC(=N)N)NC(=O)[C@@H](CCCNC(=N)N)NC(=O)[C@@H](CCCCN)NC(=O)[C@@H](C)NC(=O)[C@@H](CCCNC(=N)N)NC(=O)CNC(=O)[C@H](N)[C@H](C)O)C(N)=O)nn1)C(=O)NCC[C@@H]1NC(=O)[C@H](CCN)NC(=O)[C@H](CC(C)C)NC(=O)[C@@H](CC(C)C)NC(=O)[C@H](CCN)NC(=O)[C@@H](NC(=O)[C@H](CCN)NC(=O)[C@@H](NC(=O)[C@H](CCN)NC(=O)CCCCC(C)C)[C@@H](C)O)CCNC(=O)[C@H]([C@@H](C)O)NC1=O [Compound 46] | 32 | 8 | >32 | –
3 | 5(6)‐carboxyfluorescein | – | – | – | bacterial binding (fluorescence), in words [1]: did hardly show binding above background
4 | CC[C@H](NC(=O)[C@@H]1C[C@@H]2CCCC[C@@H]2N1C(=O)[C@H](CCS(C)(=O)=O)NC(=O)[C@H](Cc1ccc(C(=O)c2ccccc2)cc1)NC(=O)CCc1cn(CCCC[C@@H](NC(=O)CCNC(=O)[C@@H](CCCNC(=N)N)NC(=O)[C@@H](CCCNC(=N)N)NC(=O)[C@@H](CC(N)=O)NC(=O)[C@@H](Cc2ccc(O)cc2)NC(=O)[C@@H](CCC(N)=O)NC(=O)[C@@H](CCSC)NC(=O)[C@@H](CCCNC(=N)N)NC(=O)[C@@H](CCCNC(=N)N)NC(=O)[C@@H](CCCCN)NC(=O)[C@@H](C)NC(=O)[C@@H](CCCNC(=N)N)NC(=O)CNC(=O)[C@H](N)[C@H](C)O)C(N)=O)nn1)C(=O)NCC[C@@H]1NC(=O)[C@H](CC(C)C)NC(=O)[C@@H](CC(C)C)NC(=O)[C@H](CCN)NC(=O)[C@@H](NC(=O)[C@H](CCN)NC(=O)[C@@H](NC(=O)[C@H](CCN)NC(=O)CCCCC(C)C)[C@@H](C)O)CCNC(=O)[C@H]([C@@H](C)O)NC(=O)[C@H](CCN)NC1=O [Compound 40] | >32 | 32 | >32 | –
5 | 4-pentinoyl-ßAla-Ala-Ala-Pro-Val-colistin B (lariat or depsi) [Compound 48] | – | – | – | MIC (E. coli K12; E. coli K12, T medium, 17.5 h at 37 °C (Figure S10), text does not say with or without elastase): 16 µM
6 | CC[C@H](NC(=O)[C@@H]1C[C@@H]2CCCC[C@@H]2N1C(=O)[C@H](CCS(C)(=O)=O)NC(=O)[C@H](Cc1ccc(C(=O)c2ccccc2)cc1)NC(=O)CCc1cn(CCCC[C@@H](NC(=O)CCNC(=O)[C@@H](CCCNC(=N)N)NC(=O)[C@@H](CCCNC(=N)N)NC(=O)[C@@H](CC(N)=O)NC(=O)[C@@H](Cc2ccc(O)cc2)NC(=O)[C@@H](CCC(N)=O)NC(=O)[C@@H](CCSC)NC(=O)[C@@H](CCCNC(=N)N)NC(=O)[C@@H](CCCNC(=N)N)NC(=O)[C@@H](CCCCN)NC(=O)[C@@H](C)NC(=O)[C@@H](CCCNC(=N)N)NC(=O)CNC(=O)[C@H](N)[C@H](C)O)C(N)=O)nn1)C(=O)NCC[C@H](NC(=O)[C@@H](NC(=O)[C@H](CCN)NC(=O)CCCCC(C)C)[C@@H](C)O)C(=O)N[C@H]1CCNC(=O)[C@H]([C@@H](C)O)NC(=O)[C@H](CCN)NC(=O)[C@H](CCN)NC(=O)[C@H](CC(C)C)NC(=O)[C@@H](CC(C)C)NC(=O)[C@H](CCN)NC1=O [Compound 28] | 0.25 | 0.125 | 8 (≈ 30.4 µg/mL) | –
7 | Neutrophil elastase: Neutrophil Elastase (human), affinity purified, USBiological | – | – | – | antimicrobial activity of neutrophil elastase alone (E. coli K12; elastase alone, two strains of E. coli (K12 and DSM 1116)): did not display any antimicrobial activity
8 | (all-D) T-G-R-A-K-R-R-M-Q-Y-N-R-R-ßAla-norleucinamide(1H-1,2,3-triazol-4-yl)propionyl-ßAla-L-Ala-L-Ala-L-Pro-L-Val-colistin B [Compound 49] | – | – | – | antimicrobial activity (MIC) in the presence of neutrophil elastase (E. coli K12; E. coli K12, 10 mU/ml elastase, T medium, 17.5 h at 37 °C (Figure S10)): > 32 µM; antimicrobial activity (MIC) in the absence of neutrophil elastase (E. coli K12; E. coli K12, T medium, 17.5 h at 37 °C (Figure S10)): > 32 µM
9 | CC[C@H](NC(=O)[C@@H]1C[C@@H]2CCCC[C@@H]2N1C(=O)[C@H](CCS(C)(=O)=O)NC(=O)[C@H](Cc1ccc(C(=O)c2ccccc2)cc1)NC(=O)CCc1cn(CCCC[C@@H](NC(=O)CCNC(=O)[C@@H](CCCNC(=N)N)NC(=O)[C@@H](CCCNC(=N)N)NC(=O)[C@@H](CC(N)=O)NC(=O)[C@@H](Cc2ccc(O)cc2)NC(=O)[C@@H](CCC(N)=O)NC(=O)[C@@H](CCSC)NC(=O)[C@@H](CCCNC(=N)N)NC(=O)[C@@H](CCCNC(=N)N)NC(=O)[C@@H](CCCCN)NC(=O)[C@@H](C)NC(=O)[C@@H](CCCNC(=N)N)NC(=O)CNC(=O)[C@H](N)[C@H](C)O)C(N)=O)nn1)C(=O)NCC[C@@H]1NC(=O)[C@@H](NC(=O)[C@H](CCN)NC(=O)[C@@H](NC(=O)[C@H](CCN)NC(=O)CCCCC(C)C)[C@@H](C)O)CCNC(=O)[C@H]([C@@H](C)O)NC(=O)[C@H](CCN)NC(=O)[C@H](CCN)NC(=O)[C@H](CC(C)C)NC(=O)[C@@H](CC(C)C)NC1=O [Compound 34] | 4 | 4 | >32 | –
